{
  "source": "paper PMC3924858",
  "about": "(Journal of medicinal chemistry, 2013)",
  "biological_target": "human mGlu5 receptor (Homo sapiens, UniProt P41594)",
  "sequence (P41594 21-1180 isoform P41594-2 limits assumed)": "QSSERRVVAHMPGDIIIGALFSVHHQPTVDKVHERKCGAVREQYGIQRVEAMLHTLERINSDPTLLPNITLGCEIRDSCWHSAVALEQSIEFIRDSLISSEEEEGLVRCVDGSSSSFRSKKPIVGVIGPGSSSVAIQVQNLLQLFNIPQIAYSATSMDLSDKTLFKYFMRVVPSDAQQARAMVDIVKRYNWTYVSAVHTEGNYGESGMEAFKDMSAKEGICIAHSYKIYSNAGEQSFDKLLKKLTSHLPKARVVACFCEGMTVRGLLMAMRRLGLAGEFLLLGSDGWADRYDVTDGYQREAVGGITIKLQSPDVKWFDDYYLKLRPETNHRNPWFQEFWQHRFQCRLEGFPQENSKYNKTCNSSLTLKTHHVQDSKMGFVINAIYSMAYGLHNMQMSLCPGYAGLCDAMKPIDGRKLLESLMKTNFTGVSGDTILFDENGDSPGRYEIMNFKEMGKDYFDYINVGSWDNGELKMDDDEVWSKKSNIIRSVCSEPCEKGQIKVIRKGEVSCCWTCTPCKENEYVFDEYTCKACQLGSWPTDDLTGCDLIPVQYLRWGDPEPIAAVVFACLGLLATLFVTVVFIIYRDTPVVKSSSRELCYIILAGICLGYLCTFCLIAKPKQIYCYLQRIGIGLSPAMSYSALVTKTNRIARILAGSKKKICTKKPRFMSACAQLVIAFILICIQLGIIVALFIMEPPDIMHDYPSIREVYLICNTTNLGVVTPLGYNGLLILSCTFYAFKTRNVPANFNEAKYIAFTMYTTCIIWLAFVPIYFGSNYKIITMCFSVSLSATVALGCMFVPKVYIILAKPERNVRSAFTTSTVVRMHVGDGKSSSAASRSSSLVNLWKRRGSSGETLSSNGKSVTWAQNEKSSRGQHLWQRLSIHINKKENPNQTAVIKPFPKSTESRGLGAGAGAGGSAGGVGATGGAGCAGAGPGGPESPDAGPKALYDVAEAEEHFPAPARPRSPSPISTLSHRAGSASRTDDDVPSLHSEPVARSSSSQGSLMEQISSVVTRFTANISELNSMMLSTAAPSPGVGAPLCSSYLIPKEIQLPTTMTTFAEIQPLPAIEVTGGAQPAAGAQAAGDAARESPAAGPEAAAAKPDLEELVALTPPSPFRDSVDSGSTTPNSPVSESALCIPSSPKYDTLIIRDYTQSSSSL",
  "data": [
    {"smiles": "O=C1c2sc(COc3ccccc3)nc2CCN1c1ccc(F)cn1", "note": "[16p, 5-(5-Fluoro-pyridin-2-yl)-2-phenoxymethyl-6,7-dihydro-5H-thiazolo[5,4-c]pyridin-4-one]", "values": [
      {"measurement": "Glu Max", "value": "94 (89-99) %"}
    ]}
  ]
}
